Test results reported in patent US6355799B1, “Substituted benzene compounds, process for their preparation, and herbicidal and defoliant compositions containing them” (ISK Americas Incorporated, priority 1997, dated 2002).

Experiments:
Assay type in all cases: in vivo
[1] = test system: green foxtail (Setaria viridis, SETVI); assay: Pre-emerge test, greenhouse herbicide activity screening; conditions: phytotoxicity rating 0-100, 14 days after application
Source text: (§1) A standard greenhouse herbicide activity screening system was used to evaluate the herbicidal efficacy and crop safety of these test compounds. Seven broadleaf weed species including redroot pigweed (Amaranthus retroflexus, AMARE, velvetleaf (Abutilon theophrasti, ABUTH), sicklepod (Cassia obtusifolia, CASOB), ivyleaf morningglory (Ipomoea hederacea, IPOHE), lambsquarters (Chenopodium album, CHEAL), common ragweed (Ambrosia artemisizfolia L., AMBEL), and cocklebur (Xanthium strumarium, XANST) were used as test species. Four grass weed species including green foxtail (Setaria viridis, SETVI), barnyardgrass (Echinochloa crus-galli, ECHCG), johnsongrass (Sorghum halepense, SORHA), and large crabgrass (Digitaria sanguinalis, DIGSA) were also used. In addition, three crop species, field corn (Zea mays L., var. Dekalb 535, CORN), soybean (Glycine max L., var. Pella 86, SOY), and is upland rice (Oryza sp., var. Tebonnet, RICE) were included.
(§2) All plants were grown in 10 cm square plastic pots which were filled with a sandy loam soil mix. For pre-emerge tests, seeds were planted one day prior to application of the test compounds. For post-emerge tests, seeds were planted 8-21 days prior to the test to allow emergence and good foliage development prior to application of the test substances. At the time of the post-emerge application, plants of all species were usually at the 2-3 leaf stage of development.
(§3) All test compounds Were dissolved in acetone and applied to the test units in a volume of 187 l /ha. Test materials were applied at rates ranging from 15 g ai/ha to 1000 g ai/ha using a track sprayer equipped with a TJ8001E even flow flat fan spray nozzle. Plants were arranged on a shelf so that the top of the canopy (post-emerge) or top of the soil surface (pre-emerge) was 40-45 cm below the nozzle. Pressurized air was used to force the test solution through the nozzle as it was mechanically advanced (via electrically driven chain drive) over the top of all test plants/pots. This application simulates a typical commercial field herbicide application.
(§4) In the post-emerge test, a commercial non-ionic surfactant was also included (0.25% v/v) to enhance wetting of the leaf surfaces of target plants. Immediately after application, test units of the pre-emerge applications were watered at the soil surface to incorporate the test materials. Subsequently, these test units were bottom-watered. Post-emerge test units were always bottom-watered.
(§5) At 14 days after application of the test materials, phytotoxicity ratings were recorded. A rating scale of 0-100 was used as previously described in Research Methods in Weed Science, 2nd edition, B. Truelove, Ed., Southern Weed Science Society, Auburn University, Auburn, Ala. 1977. Briefly, “0” corresponds to no damage and “100” corresponds to complete death of all plants in the test unit. This scale was used both to determine efficacy against weed species and damage to crop species. Herbicide activity data for various compounds of this invention, which are shown by compound No. in Tables 1-8, are shown in Tables 11 and 12.

[2] = test system: sicklepod (Cassia obtusifolia, CASOB); assay: as above; conditions: phytotoxicity rating 0-100, 14 days after application
Source text: as §1, §2, §3, §4, §5

[3] = test system: velvetleaf (Abutilon theophrasti, ABUTH); assay: as above; conditions: phytotoxicity rating 0-100, 14 days after application
Source text: as §1, §2, §3, §4, §5

[4] = test system: lambsquarters (Chenopodium album, CHEAL); assay: as above; conditions: phytotoxicity rating 0-100, 14 days after application
Source text: as §1, §2, §3, §4, §5

[5] = test system: large crabgrass (Digitaria sanguinalis, DIGSA); assay: as above; conditions: phytotoxicity rating 0-100, 14 days after application
Source text: as §1, §2, §3, §4, §5

[6] = test system: barnyardgrass (Echinochloa crus-galli, ECHCG); assay: as above; conditions: phytotoxicity rating 0-100, 14 days after application
Source text: as §1, §2, §3, §4, §5

[7] = test system: ivyleaf morningglory (Ipomoea hederacea, IPOHE); assay: as above; conditions: phytotoxicity rating 0-100, 14 days after application
Source text: as §1, §2, §3, §4, §5

[8] = test system: green foxtail (Setaria viridis, SETVI); assay: Post-emerge test, greenhouse herbicide activity screening; conditions: post-emerge, 14 days after application, rating scale 0-100
Source text: as §1, §2, §3, §4, §5

[9] = test system: sicklepod (Cassia obtusifolia, CASOB); assay: as above; conditions: post-emerge, 14 days after application, rating scale 0-100
Source text: as §1, §2, §3, §4, §5

[10] = test system: velvetleaf (Abutilon theophrasti, ABUTH); assay: as above; conditions: post-emerge, 14 days after application, rating scale 0-100
Source text: as §1, §2, §3, §4, §5

[11] = test system: lambsquarters (Chenopodium album, CHEAL); assay: as above; conditions: post-emerge, 14 days after application, rating scale 0-100
Source text: as §1, §2, §3, §4, §5

[12] = test system: large crabgrass (Digitaria sanguinalis, DIGSA); assay: as above; conditions: post-emerge, 14 days after application, rating scale 0-100
Source text: as §1, §2, §3, §4, §5

[13] = test system: redroot pigweed (Amaranthus retroflexus, AMARE); assay: as above; conditions: post-emerge, 14 days after application
Source text: as §1, §2, §3, §4, §5

[14] = test system: barnyardgrass (Echinochloa crus-galli, ECHCG); assay: as above; conditions: post-emerge, 14 days after application, rating scale 0-100
Source text: as §1, §2, §3, §4, §5

[15] = test system: ivyleaf morningglory (Ipomoea hederacea, IPOHE); assay: as above; conditions: post-emerge, 14 days after application, rating scale 0-100
Source text: as §1, §2, §3, §4, §5

[16] = test system: upland rice (Oryza sp., var. Tebonnet, RICE); assay: Post-emerge test, crop safety; conditions: post-emerge, 14 days after application, rating scale 0-100
In short: (§6)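 Applied at 15–1000 g ai/ha from acetone in 187 l/ha spray volume. Post-emergence applications included 0.25% v/v non-ionic surfactant and reached plants sown 8–21 days before. Pre-emergence applications were incorporated by surface watering. Efficacy or crop damage was rated on a 0–100 scale after 14 days.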

[17] = test system: field corn (Zea mays L., var. Dekalb 535, CORN); assay: Post-emerge test, crop safety; conditions: post-emerge, 14 days after application, rating scale 0-100
In short: as §6

[18] = test system: redroot pigweed (Amaranthus retroflexus, AMARE); assay: Pre-emerge test, greenhouse herbicide activity screening; conditions: phytotoxicity rating 0-100, 14 days after application
In short: (§7)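 Sandy loam pots; pre-emerge: sown 1 d pre-spray, surface-watered after, then bottom-watered. Post-emerge: sown 8–21 d before, 2–3 leaf stage, + 0.25% v/v NIS, bottom-watered. Acetone, 187 l/ha track spray, 15–1000 g ai/ha. 0–100 injury score, day 14.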

[19] = test system: upland rice (Oryza sp., var. Tebonnet, RICE); assay: Pre-emerge test, crop safety; conditions: crop damage rating 0-100, 14 days after application
In short: as §7

[20] = test system: field corn (Zea mays L., var. Dekalb 535, CORN); assay: Pre-emerge test, crop safety; conditions: crop damage rating 0-100, 14 days after application
In short: as §7

COc1c(Cl)cc(F)c(-n2c(=O)cc(C(F)(F)F)n(C)c2=O)c1NC(=O)OCc1ccc2c(c1)OCO2 [4-41]
Pre-emerge Herbicidal Activity SETVI ([1]; 63 g ai/ha): 100 | Pre-emerge Herbicidal Activity SETVI ([1]; 250 g ai/ha): 100 | Pre-emerge Herbicidal Activity CASOB ([2]; 63 g ai/ha): 100 | Pre-emerge Herbicidal Activity CASOB ([2]; 250 g ai/ha): 100 | Pre-emerge Herbicidal Activity ABUTH ([3]; 63 g ai/ha): 100 | Pre-emerge Herbicidal Activity ABUTH ([3]; 250 g ai/ha): 100 | Pre-emerge Herbicidal Activity CHEAL ([4]; 63 g ai/ha): 100 | Pre-emerge Herbicidal Activity CHEAL ([4]; 250 g ai/ha): 100 | Pre-emerge Herbicidal Activity DIGSA ([5]; 63 g ai/ha): 100 | Pre-emerge Herbicidal Activity DIGSA ([5]; 250 g ai/ha): 100 | Pre-emerge Herbicidal Activity ECHCG ([6]; 63 g ai/ha): 80 | Pre-emerge Herbicidal Activity ECHCG ([6]; 250 g ai/ha): 90 | Pre-emerge Herbicidal Activity IPOHE ([7]; 63 g ai/ha): 100 | Pre-emerge Herbicidal Activity IPOHE ([7]; 250 g ai/ha): 100 | phytotoxicity rating SETVI ([8]; 63 g ai/ha): 95 | phytotoxicity rating SETVI ([8]; 250 g ai/ha): 95 | phytotoxicity rating CASOB ([9]; 63 g ai/ha): 100 | phytotoxicity rating CASOB ([9]; 250 g ai/ha): 100 | phytotoxicity rating ABUTH ([10]; 63 g ai/ha): 100 | phytotoxicity rating ABUTH ([10]; 250 g ai/ha): 100 | phytotoxicity rating CHEAL ([11]; 63 g ai/ha): 100 | phytotoxicity rating CHEAL ([11]; 250 g ai/ha): 100 | phytotoxicity rating DIGSA ([12]; 63 g ai/ha): 90 | phytotoxicity rating DIGSA ([12]; 250 g ai/ha): 100 | phytotoxicity rating AMARE ([13]; 63 g ai/ha, rating scale 0-100 (0 no damage, 100 complete death)): 100 | phytotoxicity rating AMARE ([13]; 250 g ai/ha, rating scale 0-100): 100 | phytotoxicity rating ECHCG ([14]; 63 g ai/ha): 80 | phytotoxicity rating ECHCG ([14]; 250 g ai/ha): 90 | phytotoxicity rating IPOHE ([15]; 63 g ai/ha): 100 | phytotoxicity rating IPOHE ([15]; 250 g ai/ha): 100 | phytotoxicity rating RICE (crop damage) ([16]; 63 g ai/ha): 50 | phytotoxicity rating RICE (crop damage) ([16]; 250 g ai/ha): 85 | phytotoxicity rating CORN (crop damage) ([17]; 63 g ai/ha): 75 | phytotoxicity rating CORN (crop damage) ([17]; 250 g ai/ha): 90 | Pre-emerge Herbicidal Activity AMARE ([18]; 63 g ai/ha): 100 | Pre-emerge Herbicidal Activity AMARE ([18]; 250 g ai/ha): 100 | Pre-emerge Herbicidal Activity RICE ([19]; 63 g ai/ha): 40 | Pre-emerge Herbicidal Activity RICE ([19]; 250 g ai/ha): 80 | Pre-emerge Herbicidal Activity CORN ([20]; 63 g ai/ha): 15 | Pre-emerge Herbicidal Activity CORN ([20]; 250 g ai/ha): 65
